Source: patent publication US11261211B2, “19-NOR neuroactive steroids and methods of use thereof” (Sage Therapeutics, Inc., priority 2013, dated 2022)

How the values were obtained:
α1β2γ2 GABAA receptor = α1β2γ2 GABAA receptor (Homo sapiens (Human), UniProt P14867+P47870); experiment: Patch clamp electrophysiology of recombinant α1β2γ2 GABAA receptors in LTK cells; type: cell-based; settings: for activity at 10 µM / Emax: LTK; for activity at 10 µM / α1β2γ2 GABA Qpatch in Ltk (Efficacy at 10 μm): 10 μM compound, Qpatch, Ltk cells, GABA EC20 2 μM; for activity at 10 µM: read-out: α1β2γ2 GABA Qpatch in Ltk (Efficacy at 10 μm); for Emax / EC50: potentiation of GABA EC20 (2 μM) current; for Emax: read-out: GABAa alpha1 (α1β2γ2) Emax (%); for EC50: read-out: GABAa alpha1 (α1β2γ2)EC50
Method in brief: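 Whole-cell voltage clamp at −80 mV, room temperature, in LTK cells stably expressing α1β2γ2 or CHO cells transiently expressing α4β3δ, manual or QPatch. Test article (0.01–10 μM, increasing, 30 s preincubation) then 2 μM GABA (EC20) for 2 s; potentiation = peak current with compound relative to GABA alone ×100.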

α4β3δ GABAA receptor = α4β3δ GABAA receptor (Homo sapiens (Human), UniProt P28472+P48169); experiment: Patch clamp electrophysiology of recombinant α4β3δ GABAA receptors in CHO cells; type: cell-based; settings: 10 μM compound, GABA EC20 2 μM; for activity at 10 µM: manual patch, read-out: α4β3δ GABA Manual Patch in CHO (Efficacy at 10 μM)
Protocol: Cellular electrophysiology is used to measure the pharmacological properties of our GABAA receptor modulators in heterologous cell systems. Each compound is tested for its ability to affect GABA mediated currents at a submaximal agonist dose (GABA EC20=2 μM). LTK cells are stably transfected with the α1β2γ2 subunits of the GABA receptor and CHO cells are transiently transfected with the α4β3δ subunits via the Lipofecatamine method. Cells were passaged at a confluence of about 50-80% and then seeded onto 35 mm sterile culture dishes containing 2 ml culture complete medium without antibiotics or antimycotics. Confluent clusters of cells are electrically coupled (Pritchett et al., 1988). Because responses in distant cells are not adequately voltage clamped and because of uncertainties about the extent of coupling (Verdoorn et al., 1990), cells were cultivated at a density that enables the recording of single cells (without visible connections to other cells).
Whole cell currents were measured with HEKA EPC-10 amplifiers using PatchMaster software or by using the high throughput QPatch platform (Sophion). Bath solution for all experiments contained (in mM): NaCl 137 mM, KCl 4 mM, CaCl2 1.8 mM, MgCl2 1 mM, HEPES 10 mM, D-Glucose 10 mM, pH (NaOH) 7.4. In some cases 0.005% cremophor was also added. Intracellular (pipette) solution contained: KCl 130 mM, MgCl2 1 mM, Mg-ATP 5 mM, HEPES 10 mM, EGTA 5 mM, pH 7.2. During experiments, cells and solutions were maintained at room temperature (19° C.-30° C.). For manual patch clamp recordings, cell culture dishes were placed on the dish holder of the microscope and continuously perfused (1 ml/min) with bath solution. After formation of a Gigaohm seal between the patch electrodes and the cell (pipette resistance range: 2.5 MΩ-6.0 MΩ; seal resistance range: >1 GΩ) the cell membrane across the pipette tip was ruptured to assure electrical access to the cell interior (whole-cell patch-configuration). For experiments using the QPatch system, cells were transferred as suspension to the QPatch system in the bath solution and automated whole cell recordings were performed.
Cells were voltage clamped at a holding potential of −80 mV. For the analysis of test articles, GABA receptors were stimulated by 2 μM GABA after sequential pre-incubation of increasing concentrations of the test article. Pre-incubation duration was 30 s and the duration of the GABA stimulus was 2 s. Test articles were dissolved in DMSO to form stock solutions (10 mM). Test articles were diluted to 0.01, 0.1, 1, and 10 μM in bath solution. All concentrations of test articles were tested on each cell. The relative percentage potentiation was defined as the peak amplitude in response to GABA EC20 in the presence of the test article divided by the peak amplitude in response to GABA EC20 alone, multiplied by 100.

SMILES	activity at 10 µM (α1β2γ2 GABAA receptor) [%]	Emax (α1β2γ2 GABAA receptor) [%]	EC50 (α1β2γ2 GABAA receptor) [µM]	activity at 10 µM (α4β3δ GABAA receptor) [%]	α1β2γ2 GABA Qpatch in Ltk (Efficacy at 10 μm) (α1β2γ2 GABAA receptor)	α4β3δ GABA Manual Patch in CHO (Efficacy at 10 μM) (α4β3δ GABAA receptor)
C[C@@]1(O)CC[C@H]2[C@H](CC[C@@H]3[C@@H]2CC[C@]2(C)[C@@H](C(=O)Cn4nc5ccccc5n4)CC[C@@H]32)C1 [SA-2]	100 to 500	0 to 500	0.5 to 1	> 500		
C[C@@]1(O)CC[C@H]2[C@H](CC[C@@H]3[C@@H]2CC[C@]2(C)[C@@H](C(=O)Cn4cc5ncccc5n4)CC[C@@H]32)C1 [SA-4]		500 to 1000	1 to 2		C (“C” indicates an efficacy value of >500%)	B (“B” indicates an efficacy value of >100-500%)
C[C@@]1(O)CC[C@H]2[C@H](CC[C@@H]3[C@@H]2CC[C@]2(C)[C@@H](C(=O)Cn4cc5ccccc5n4)CC[C@@H]32)C1 [SA-6]		500 to 1000	> 2		C (“C” indicates an efficacy value of >500%)	B (“B” indicates an efficacy value of >100-500%)
C[C@@]1(O)CC[C@H]2[C@H](CC[C@@H]3[C@@H]2CC[C@]2(C)[C@@H](C(=O)Cn4cc5c(n4)CCCC5)CC[C@@H]32)C1 [SA-7]					B (“B” indicates an efficacy value of >100-500%)	B (“B” indicates an efficacy value of >100-500%)
C[C@@]1(O)CC[C@H]2[C@H](CC[C@@H]3[C@@H]2CC[C@]2(C)[C@@H](C(=O)Cn4nc5ccncc5n4)CC[C@@H]32)C1 [SA-11]	> 500			100 to 500		
C[C@@]1(O)CC[C@H]2[C@H](CC[C@@H]3[C@@H]2CC[C@]2(C)[C@@H](C(=O)Cn4nc5cccnc5n4)CC[C@@H]32)C1 [SA-14]	> 500			100 to 500		
C[C@@]1(O)CC[C@H]2[C@H](CC[C@@H]3[C@@H]2CC[C@]2(C)[C@@H](C(=O)Cn4cc5cc(F)ccc5n4)CC[C@@H]32)C1 [SA-16]	> 500			100 to 500		
C[C@@]1(O)CC[C@H]2[C@H](CC[C@@H]3[C@@H]2CC[C@]2(C)[C@@H](C(=O)Cn4cc5cccnc5n4)CC[C@@H]32)C1 [SA-18]		500 to 1000	> 2		C (“C” indicates an efficacy value of >500%)	C (“C” indicates an efficacy value of >500%)
C[C@@]1(O)CC[C@H]2[C@H](CC[C@@H]3[C@@H]2CC[C@]2(C)[C@@H](C(=O)Cn4cc5ccncc5n4)CC[C@@H]32)C1 [SA-20]					C (“C” indicates an efficacy value of >500%)	C (“C” indicates an efficacy value of >500%)
C[C@@]1(O)CC[C@H]2[C@H](CC[C@@H]3[C@@H]2CC[C@]2(C)[C@@H](C(=O)Cn4cc5ccc(F)cc5n4)CC[C@@H]32)C1 [SA-22]	> 500			100 to 500		
Cc1cc2cn(CC(=O)[C@H]3CC[C@H]4[C@@H]5CC[C@@H]6C[C@](C)(O)CC[C@@H]6[C@H]5CC[C@]34C)nc2cn1 [SA-24]	100 to 500			100 to 500		
C[C@@]1(O)CC[C@H]2[C@H](CC[C@@H]3[C@@H]2CC[C@]2(C)[C@@H](C(=O)Cn4cc5ncc(Cl)cc5n4)CC[C@@H]32)C1 [SA-26]	> 500			100 to 500		
C[C@@]1(O)CC[C@H]2[C@H](CC[C@@H]3[C@@H]2CC[C@]2(C)[C@@H](C(=O)Cn4cc5nccnc5n4)CC[C@@H]32)C1 [SA-28]	100 to 500			100 to 500		
C[C@@]1(O)CC[C@H]2[C@H](CC[C@@H]3[C@@H]2CC[C@]2(C)[C@@H](C(=O)Cn4cc5cc(Cl)ncc5n4)CC[C@@H]32)C1 [SA-30]	> 500			> 500		
C[C@@]1(O)CC[C@H]2[C@H](CC[C@@H]3[C@@H]2CC[C@]2(C)[C@@H](C(=O)Cn4cc5ncncc5n4)CC[C@@H]32)C1 [SA-32]	> 500			> 500		
C[C@@]1(O)CC[C@H]2[C@H](CC[C@@H]3[C@@H]2CC[C@]2(C)[C@@H](C(=O)Cn4cc5cncnc5n4)CC[C@@H]32)C1 [SA-35]	100 to 500			> 500		

SMILES	activity at 10 µM (α1β2γ2 GABAA receptor) [%]	Emax (α1β2γ2 GABAA receptor) [%]	EC50 (α1β2γ2 GABAA receptor) [µM]	activity at 10 µM (α4β3δ GABAA receptor) [%]	α1β2γ2 GABA Qpatch in Ltk (Efficacy at 10 μm) (α1β2γ2 GABAA receptor)	α4β3δ GABA Manual Patch in CHO (Efficacy at 10 μM) (α4β3δ GABAA receptor)
C[C@@]1(O)CC[C@H]2[C@H](CC[C@@H]3[C@@H]2CC[C@]2(C)[C@@H](C(=O)Cn4nc5ccc(Cl)cc5n4)CC[C@@H]32)C1 [SA-41]	> 500			100 to 500		
Cc1ccc2nn(CC(=O)[C@H]3CC[C@H]4[C@@H]5CC[C@@H]6C[C@](C)(O)CC[C@@H]6[C@H]5CC[C@]34C)nc2c1 [SA-44]	100 to 500			100 to 500		
COc1ccc2nn(CC(=O)[C@H]3CC[C@H]4[C@@H]5CC[C@@H]6C[C@](C)(O)CC[C@@H]6[C@H]5CC[C@]34C)nc2c1 [SA-49]				> 500		
C[C@@]1(O)CC[C@H]2[C@H](CC[C@@H]3[C@@H]2CC[C@]2(C)[C@@H](C(=O)Cn4nc5cc(Cl)cnc5n4)CC[C@@H]32)C1 [SA-57]	> 500			100 to 500		
C[C@@]1(O)CC[C@H]2[C@H](CC[C@@H]3[C@@H]2CC[C@]2(C)[C@@H](C(=O)Cn4nc5ccc(F)cc5n4)CC[C@@H]32)C1 [SA-63]				100 to 500		
C[C@@]1(O)CC[C@H]2[C@H](CC[C@@H]3[C@@H]2CC[C@]2(C)[C@@H](C(=O)Cn4nc5cccc(F)c5n4)CC[C@@H]32)C1 [SA-66]	> 500			> 500		
Cc1cccc2nn(CC(=O)[C@H]3CC[C@H]4[C@@H]5CC[C@@H]6C[C@](C)(O)CC[C@@H]6[C@H]5CC[C@]34C)nc12 [SA-69]	100 to 500			100 to 500		
C[C@@]1(O)CC[C@H]2[C@H](CC[C@@H]3[C@@H]2CC[C@]2(C)[C@@H](C(=O)Cn4nc5cccc(Cl)c5n4)CC[C@@H]32)C1 [SA-78]	100 to 500			100 to 500		
C[C@]12CC[C@H]3[C@@H](CC[C@@H]4C[C@@](O)(CF)CC[C@@H]43)[C@@H]1CC[C@@H]2C(=O)Cn1nc2ccccc2n1 [SA-80]	> 500			> 500		
C[C@]12CC[C@H]3[C@@H](CC[C@@H]4C[C@@](O)(CF)CC[C@@H]43)[C@@H]1CC[C@@H]2C(=O)Cn1cc2ncccc2n1 [SA-83]	100 to 500			100 to 500		
COC[C@@]1(O)CC[C@H]2[C@H](CC[C@@H]3[C@@H]2CC[C@]2(C)[C@@H](C(=O)Cn4nc5ccncc5n4)CC[C@@H]32)C1 [SA-125]	> 500			100 to 500		
C[C@@]1(O)CC[C@H]2[C@@H](CC[C@@H]3[C@@H]2CC[C@]2(C)[C@@H](C(=O)Cn4cc5ncccc5n4)CC[C@@H]32)C1 [SB-4]					C (“C” indicates an efficacy value of >500%)	C (“C” indicates an efficacy value of >500%)
C[C@@]1(O)CC[C@H]2[C@@H](CC[C@@H]3[C@@H]2CC[C@]2(C)[C@@H](C(=O)Cn4nc5ccncc5n4)CC[C@@H]32)C1 [SB-8]	> 500			100 to 500		
C[C@@]1(O)CC[C@H]2[C@@H](CC[C@@H]3[C@@H]2CC[C@]2(C)[C@@H](C(=O)Cn4cc5ccncc5n4)CC[C@@H]32)C1 [SB-9]					C (“C” indicates an efficacy value of >500%)	B (“B” indicates an efficacy value of >100-500%)
COc1ccc2c(c1)nnn2CC(=O)[C@H]1CC[C@H]2[C@@H]3CC[C@H]4C[C@@](O)(CF)CC[C@@H]4[C@H]3CC[C@]12C [SG-23]	10 to 100					
C[C@]12CC[C@H]3[C@@H](CC[C@H]4C[C@@](O)(CF)CC[C@@H]43)[C@@H]1CC[C@@H]2C(=O)Cn1nc2ccc(F)cc2n1 [SG-24]	100 to 500					
